Patent publication US20060069132A1, “Azolecarboxamide herbicides” (priority 2004, published 2006)

Key:
cocklebur (XANST) = experiment: Test J Compounds 2 and 6 alone and in combination with other herbicides, foliage spray; type: in vivo, Xanthium strumarium; design: key: 0 = no effect, 100 = complete control; conditions: applied alone
Description: (§1) Seeds of test plants consisting of barnyardgrass (ECHCG; Echinochloa crus-galli (L.) Beauv.), blackgrass (ALOMY; Alopecurus myosuroides Huds.), Surinam grass (BRADC; Urochloa decumbens (Staph) R. D. Webster, previously named Brachiaria decumbens Stapf), cocklebur (XANST, Xanthium strumarium L.), corn (ZEAMD, Zea mays L. cv. ‘Pioneer 33G26’), large crabgrass (DIGSA, Digitaria sanguinalis (L.) Scop.), giant foxtail (SETFA, Setaria faberi Herrm.), lambsquarters (CHEAL, Chenopodium album L.), morningglory (IPOCO, Ipomoea coccinea L.), pigweed (AMARE, Amaranthus retroflexus L.), velvetleaf (ABUTH, Abutilon theophrasti Medik.) wheat (TRZAS, Triticum aestivum L. cv. ‘Recital’) and wild oat (AVEFA, Avena fatua L.) were planted in Redi-Earth® planting medium (Scotts Company, 14111 Scottslawn Road, Marysville, Ohio 43041) comprising spaghnum peat moss and vermiculite. Seeds of small-seeded species were planted about 1 cm deep; larger seeds were planted about 2.5 cm deep. Plants were grown in a greenhouse using supplemental lighting to maintain a photoperiod of about 14 hours; daytime and nighttime temperatures were about 24-30° C. and 22-25° C., respectively. Balanced fertilizer was applied through the watering system. The plants were grown for 7 to 11 days so that at time of treatment the plants ranged in height from 2 to 18 cm (1- to 4-leaf stage). Treatments consisted of Compounds 2 and 6 (technical material), atrazine (90DF), terbacil (Sinbar® 80DF), hexazinone (Velpar® 75WG), diuron (Karmex® 80WP) and paraquat (Gramoxone® Extra, 37%) alone and in combination, suspended or dissolved in an aqueous solvent comprising a nonionic surfactant and applied as a foliage spray using a volume of 541 L/ha. Each treatment was triply replicated. […] Treated plants and controls were maintained in the greenhouse and watered as needed with care to not wet the foliage for the first 24 hours after treatment. The effects on the plants 15 days after treatment were visually compared to untreated controls. Plant response ratings, listed in Table J as the means of the thee replicates, are based on a scale of 0 to 100 where 0 is no effect and 100 is complete control. Also listed in Table J are the expected effects for the mixtures calculated using Colby's Equation.

lambsquarters (CHEAL) = experiment: as above; type: in vivo, Chenopodium album; design: key: % herbicidal effect (observed); conditions: applied alone
Description: Colby's Equation was used to calculate the expected additive herbicidal effect of the mixtures of Compound 6 with Harmony® Extra (i.e. a 2:1 mixture by weight of thifensulfuron-methyl and tribenuron-methyl). Colby's Equation (Colby, S. R. “Calculating Synergistic and Antagonistic Responses of Herbicide Combinations,” Weeds, 15(1), pp 20-22 (1967)) calculates the expected additive effect of herbicidal mixtures, and for two active ingredients is of the form: Pa+b=Pa+Pb−(PaPb/100) wherein • Pa+b is the percentage effect of the mixture expected from additive contribution of the individual components, • Pa is the observed percentage effect of the first active ingredient at the same use rate as in the mixture, and • Pb is the observed percentage effect of the second active ingredient at the same use rate as in the mixture.
as §1

Russian thistle = experiment: Test F pre-/postemergence herbicide test; type: in vivo, Salsola kali; conditions: 125 g ai/ha
Description: Seeds of plant species selected from annual blugrass (Poa annua L.), blackgrass (Alopecurus myosuroides Huds.), catchweed bedstraw (Gallium aparine L.), common chickweed (Stellaria media (L.) Vill./Cyr.), downy bromegrass (Bromus tectorum L.), green foxtail (Setaria viridis (L.) Beauv.), Italian ryegrass (Lolium multiflorum Lam.), kochia (Kochia scoparia (L.). Schrad.), lambsquarters (Chenopodium album L.), littleseed canarygrass (Phalaris minor Retz.), pigweed (Amaranthus retroflexus L.), Russian thistle (Salsola kali L. ssp. Ruthenica (Iljin) Soo), wild buckwheat (Polygonum convolvulus L.), wild mustard (Sinapis arvensis L.), wild oat (Avena fatua L.), windgrass (Apera spica-venti (L.) Beauv.), winter barley (Hordeum vulgare L.), and wheat (Triticum aestivum L.) were planted and treated preemergence with test chemicals formulated in a non-phytotoxic solvent mixture which included a surfactant.
At the same time, plants selected from these crop and weed species were treated with postemergence applications of some of the test chemicals formulated in the same manner. Plants ranged in height from 2 to 18 cm (1- to 4-leaf stage) for postemergence treatments. Treated plants and controls were maintained in a greenhouse for 12 to 14 days, after which time all species were compared to controls and visually evaluated. […]

Structure (SMILES): CCNC(=O)c1ccc(F)c(NC(=O)c2cc(C(C)(C)C)nn2CC)c1 [Compound 2, 3-(1,1-dimethylethyl)-1-ethyl-N-[5-[(ethylamino)carbonyl]-2-fluorophenyl]-1H-pyrazole-5-carboxamide]
- XANST Obsd. (cocklebur (XANST); 62 g a.i./ha): 50
- XANST Obsd. (cocklebur (XANST); 125 g a.i./ha): 58
- CHEAL Obsd. (lambsquarters (CHEAL); 62 g a.i./ha): 40
- CHEAL Obsd. (lambsquarters (CHEAL); 125 g a.i./ha): 55

Structure (SMILES): CCc1nn(C(C)(C)C)cc1C(=O)Nc1cc(C(=O)N(CC)CC)ccc1F [Compound 223]
- Plant response rating (0-100), Thistle (Russian thistle; Postemergence): 60
- Plant response rating (0-100), Thistle (Russian thistle; Preemergence): 60
